Experimental data: patent US20240158446A1, “CYCLIC COMPOUND HAVING SELECTIVE INHIBITORY ACTION ON KRAS OVER HRAS AND NRAS” (CHUGAI SEIYAKU KABUSHIKI KAISHA, priority 2021, published 2024)
Where a SMILES comes first, the peptide text is derived from it. Bridges are numbered along the chain shown (N, C = ends). [ ]: non-standard residue; d: D form. The star is where a group is joined. hPhe(3-Cl-4-CF3) = N[C@@H](CCc1ccc(C(F)(F)F)c(Cl)c1)C(=O)O; NPrPhe(4-CF3) = CCCN[C@@H](Cc1ccc(C(F)(F)F)cc1)C(=O)O; NMeAbu(4,4,4-F3) = CN[C@@H](CC(F)(F)F)C(=O)O; NMeGly(cPent) = CN[C@H](C(=O)O)C1CCCC1; Pro(4,4-F2) = O=C(O)[C@@H]1CC(F)(F)CN1; NMeGly(cBu) = CN[C@H](C(=O)O)C1CCC1; NMeD = CN[C@@H](CC(=O)O)C(=O)O; NMeL = CN[C@@H](CC(C)C)C(=O)O; NMeNva = CCC[C@H](NC)C(=O)O; NMeAbu = CC[C@H](NC)C(=O)O; Morpholide = C1CN(*)CCO1; NMeA = CN[C@@H](C)C(=O)O; Ac5c = NC1(C(=O)O)CCCC1; Aze = O=C(O)[C@@H]1CCN1; Ac4c = NC1(C(=O)O)CCC1; Sar = CNCC(=O)O

Key:
[1] = molecular target: GDP-bound HRAS wild-type protein (Homo sapiens, UniProt P01112); experiment: Binding to HRAS by surface plasmon resonance (SPR), Single Cycle Kinetics; settings: SPR, GDP-bound HRAS wild-type protein vs GDP-bound KRAS wild-type protein
GDP-bound HRAS wild-type protein, sequence (P01112 whole entry): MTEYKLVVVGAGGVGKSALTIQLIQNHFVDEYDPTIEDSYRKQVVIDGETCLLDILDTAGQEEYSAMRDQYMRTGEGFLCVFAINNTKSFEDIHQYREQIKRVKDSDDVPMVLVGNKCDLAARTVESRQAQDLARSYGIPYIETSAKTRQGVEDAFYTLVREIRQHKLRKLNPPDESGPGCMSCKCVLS

[2] = molecular target: GDP-bound NRAS wild-type protein (Homo sapiens, UniProt P01111); experiment: Binding to NRAS by surface plasmon resonance (SPR), Single Cycle Kinetics; settings: SPR, GDP-bound NRAS wild-type protein vs GDP-bound KRAS wild-type protein
GDP-bound NRAS wild-type protein, sequence (P01111 whole entry): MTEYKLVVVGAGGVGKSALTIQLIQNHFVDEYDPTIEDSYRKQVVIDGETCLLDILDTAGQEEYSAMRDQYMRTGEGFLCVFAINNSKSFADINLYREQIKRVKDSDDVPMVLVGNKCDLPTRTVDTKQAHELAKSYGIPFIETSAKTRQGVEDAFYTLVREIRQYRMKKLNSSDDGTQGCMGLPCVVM

[3] = molecular target: GDP-bound KRAS wild-type protein (Homo sapiens, UniProt P01116); experiment: Binding to KRAS by surface plasmon resonance (SPR), Single Cycle Kinetics; settings: SPR Single Cycle Kinetics, GDP-bound KRAS wild-type protein, 1:1 binding model; read-out: KRAS KD
GDP-bound KRAS wild-type protein, sequence (P01116 whole entry): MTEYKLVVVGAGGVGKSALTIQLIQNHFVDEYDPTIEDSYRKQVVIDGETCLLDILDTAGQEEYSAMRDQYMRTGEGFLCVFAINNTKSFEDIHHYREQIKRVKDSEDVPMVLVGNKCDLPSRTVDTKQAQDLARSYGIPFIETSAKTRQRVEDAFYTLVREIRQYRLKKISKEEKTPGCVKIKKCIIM

Kd [3] | SMILES | HRAS/KRAS (ratio of KD value for HRAS to KD value for KRAS) [1] | NRAS/KRAS (ratio of KD value for NRAS to KD value for KRAS) [2]
0.22 nM | CCC[C@H]1C(=O)N[C@@H]([C@@H](C)CC)C(=O)N(C)CC(=O)N(C)CC(=O)N(CCC)[C@@H](Cc2ccc(C(F)(F)F)cc2)C(=O)N(C)CC(=O)N[C@@H](CCc2ccc(C(F)(F)F)c(Cl)c2)C(=O)N2CCC[C@H]2C(=O)NC2(CCCC2)C(=O)N(C)[C@@H](C2CCCC2)C(=O)N(C)[C@H](C(=O)N2CCOCC2)CC(=O)N1C [PP0189] ([NMeNva]I[Sar][Sar][NPrPhe(4-CF3)][Sar][hPhe(3-Cl-4-CF3)]P[Ac5c][NMeGly(cPent)][NMeD]-Morpholide; lactam N-11) | C (A compound having a KD ratio of 0.1 or more and less than 3 is denoted as C) | B (a compound having 3 or more and less than 10 is denoted as B)
0.13 nM | CCCN1C(=O)CN(C)C(=O)CN(C)C(=O)[C@H]([C@@H](C)CC)NC(=O)[C@H](CC)N(C)C(=O)C[C@@H](C(=O)N2CCOCC2)N(C)C(=O)[C@H](C2CCCC2)N(C)C(=O)C2(CCCC2)NC(=O)[C@@H]2CCCN2C(=O)[C@H](CCc2ccc(C(F)(F)F)c(Cl)c2)NC(=O)CN(C)C(=O)[C@@H]1Cc1ccc(C(F)(F)F)cc1 [PP0190] ([NMeAbu]I[Sar][Sar][NPrPhe(4-CF3)][Sar][hPhe(3-Cl-4-CF3)]P[Ac5c][NMeGly(cPent)][NMeD]-Morpholide; lactam N-11) | B (a compound having 3 or more and less than 10 is denoted as B) | B (a compound having 3 or more and less than 10 is denoted as B)
0.14 nM | CCCN1C(=O)[C@@H]2CCN2C(=O)[C@H](C)N(C)C(=O)[C@H]([C@@H](C)CC)NC(=O)[C@H](CC(F)(F)F)N(C)C(=O)C[C@@H](C(=O)N2CCOCC2)N(C)C(=O)[C@H](C2CCCC2)N(C)C(=O)C2(CCCC2)NC(=O)[C@@H]2CCCN2C(=O)[C@H](CCc2ccc(C(F)(F)F)c(Cl)c2)NC(=O)CN(C)C(=O)[C@@H]1Cc1ccc(C(F)(F)F)cc1 [PP0191] ([NMeAbu(4,4,4-F3)]I[NMeA][Aze][NPrPhe(4-CF3)][Sar][hPhe(3-Cl-4-CF3)]P[Ac5c][NMeGly(cPent)][NMeD]-Morpholide; lactam N-11) | B (a compound having 3 or more and less than 10 is denoted as B) | C (A compound having a KD ratio of 0.1 or more and less than 3 is denoted as C)
0.19 nM | CCCN1C(=O)[C@@H]2CCN2C(=O)[C@H](C)N(C)C(=O)[C@H]([C@@H](C)CC)NC(=O)[C@H](C2CCC2)N(C)C(=O)C[C@@H](C(=O)N2CCOCC2)N(C)C(=O)[C@H](C2CCCC2)N(C)C(=O)C2(CCCC2)NC(=O)[C@@H]2CCCN2C(=O)[C@H](CCc2ccc(C(F)(F)F)c(Cl)c2)NC(=O)CN(C)C(=O)[C@@H]1Cc1ccc(C(F)(F)F)cc1 [PP0192] ([NMeGly(cBu)]I[NMeA][Aze][NPrPhe(4-CF3)][Sar][hPhe(3-Cl-4-CF3)]P[Ac5c][NMeGly(cPent)][NMeD]-Morpholide; lactam N-11) | B (a compound having 3 or more and less than 10 is denoted as B) | C (A compound having a KD ratio of 0.1 or more and less than 3 is denoted as C)
0.17 nM | CCC[C@H]1C(=O)N[C@@H]([C@@H](C)CC)C(=O)N(C)[C@@H](C)C(=O)N2CC[C@H]2C(=O)N(CCC)[C@@H](Cc2ccc(C(F)(F)F)cc2)C(=O)N(C)CC(=O)N[C@@H](CCc2ccc(C(F)(F)F)c(Cl)c2)C(=O)N2CCC[C@H]2C(=O)NC2(CCCC2)C(=O)N(C)[C@@H](C2CCCC2)C(=O)N(C)[C@H](C(=O)N2CCOCC2)CC(=O)N1C [PP0193] ([NMeNva]I[NMeA][Aze][NPrPhe(4-CF3)][Sar][hPhe(3-Cl-4-CF3)]P[Ac5c][NMeGly(cPent)][NMeD]-Morpholide; lactam N-11) | C (A compound having a KD ratio of 0.1 or more and less than 3 is denoted as C) | C (A compound having a KD ratio of 0.1 or more and less than 3 is denoted as C)
0.09 nM | CCCN1C(=O)[C@@H]2CCN2C(=O)[C@H](C)N(C)C(=O)[C@H]([C@@H](C)CC)NC(=O)[C@H](CC)N(C)C(=O)C[C@@H](C(=O)N2CCOCC2)N(C)C(=O)[C@H](C2CCCC2)N(C)C(=O)C2(CCCC2)NC(=O)[C@@H]2CCCN2C(=O)[C@H](CCc2ccc(C(F)(F)F)c(Cl)c2)NC(=O)CN(C)C(=O)[C@@H]1Cc1ccc(C(F)(F)F)cc1 [PP0194] ([NMeAbu]I[NMeA][Aze][NPrPhe(4-CF3)][Sar][hPhe(3-Cl-4-CF3)]P[Ac5c][NMeGly(cPent)][NMeD]-Morpholide; lactam N-11) | B (a compound having 3 or more and less than 10 is denoted as B) | C (A compound having a KD ratio of 0.1 or more and less than 3 is denoted as C)
0.091 nM | CCCN1C(=O)CN(C)C(=O)CN(C)C(=O)[C@H]([C@@H](C)CC)NC(=O)[C@H](CC(C)C)N(C)C(=O)C[C@@H](C(=O)N2CCOCC2)N(C)C(=O)[C@H](C2CCCC2)N(C)C(=O)C2(CCCC2)NC(=O)[C@@H]2CC(F)(F)CN2C(=O)[C@H](CCc2ccc(C(F)(F)F)c(Cl)c2)NC(=O)CN(C)C(=O)[C@@H]1Cc1ccc(C(F)(F)F)cc1 [PP0195] ([NMeL]I[Sar][Sar][NPrPhe(4-CF3)][Sar][hPhe(3-Cl-4-CF3)][Pro(4,4-F2)][Ac5c][NMeGly(cPent)][NMeD]-Morpholide; lactam N-11) | C (A compound having a KD ratio of 0.1 or more and less than 3 is denoted as C) | B (a compound having 3 or more and less than 10 is denoted as B)
0.15 nM | CCCN1C(=O)[C@@H]2CCN2C(=O)[C@H](C)N(C)C(=O)[C@H]([C@@H](C)CC)NC(=O)[C@H](CC(C)C)N(C)C(=O)C[C@@H](C(=O)N2CCOCC2)N(C)C(=O)[C@H](C2CCCC2)N(C)C(=O)C2(CCCC2)NC(=O)[C@@H]2CC(F)(F)CN2C(=O)[C@H](CCc2ccc(C(F)(F)F)c(Cl)c2)NC(=O)CN(C)C(=O)[C@@H]1Cc1ccc(C(F)(F)F)cc1 [PP0196] ([NMeL]I[NMeA][Aze][NPrPhe(4-CF3)][Sar][hPhe(3-Cl-4-CF3)][Pro(4,4-F2)][Ac5c][NMeGly(cPent)][NMeD]-Morpholide; lactam N-11) | C (A compound having a KD ratio of 0.1 or more and less than 3 is denoted as C) | C (A compound having a KD ratio of 0.1 or more and less than 3 is denoted as C)
0.13 nM | CCCN1C(=O)CN(C)C(=O)CN(C)C(=O)[C@H]([C@@H](C)CC)NC(=O)[C@H](CC(C)C)N(C)C(=O)C[C@@H](C(=O)N2CCOCC2)N(C)C(=O)[C@H](C2CCCC2)N(C)C(=O)C2(CCC2)NC(=O)[C@@H]2CCCN2C(=O)[C@H](CCc2ccc(C(F)(F)F)c(Cl)c2)NC(=O)CN(C)C(=O)[C@@H]1Cc1ccc(C(F)(F)F)cc1 [PP0197] ([NMeL]I[Sar][Sar][NPrPhe(4-CF3)][Sar][hPhe(3-Cl-4-CF3)]P[Ac4c][NMeGly(cPent)][NMeD]-Morpholide; lactam N-11) | C (A compound having a KD ratio of 0.1 or more and less than 3 is denoted as C) | B (a compound having 3 or more and less than 10 is denoted as B)
0.19 nM | CCCN1C(=O)[C@@H]2CCN2C(=O)[C@H](C)N(C)C(=O)[C@H]([C@@H](C)CC)NC(=O)[C@H](CC(C)C)N(C)C(=O)C[C@@H](C(=O)N2CCOCC2)N(C)C(=O)[C@H](C2CCCC2)N(C)C(=O)C2(CCC2)NC(=O)[C@@H]2CCCN2C(=O)[C@H](CCc2ccc(C(F)(F)F)c(Cl)c2)NC(=O)CN(C)C(=O)[C@@H]1Cc1ccc(C(F)(F)F)cc1 [PP0198] ([NMeL]I[NMeA][Aze][NPrPhe(4-CF3)][Sar][hPhe(3-Cl-4-CF3)]P[Ac4c][NMeGly(cPent)][NMeD]-Morpholide; lactam N-11) | B (a compound having 3 or more and less than 10 is denoted as B) | C (A compound having a KD ratio of 0.1 or more and less than 3 is denoted as C)
0.13 nM | CCCN1C(=O)CN(C)C(=O)CN(C)C(=O)[C@H]([C@@H](C)CC)NC(=O)[C@H](CC(F)(F)F)N(C)C(=O)C[C@@H](C(=O)N2CCOCC2)N(C)C(=O)[C@H](C2CCCC2)N(C)C(=O)C2(CCCC2)NC(=O)[C@@H]2CC(F)(F)CN2C(=O)[C@H](CCc2ccc(C(F)(F)F)c(Cl)c2)NC(=O)CN(C)C(=O)[C@@H]1Cc1ccc(C(F)(F)F)cc1 [PP0199] ([NMeAbu(4,4,4-F3)]I[Sar][Sar][NPrPhe(4-CF3)][Sar][hPhe(3-Cl-4-CF3)][Pro(4,4-F2)][Ac5c][NMeGly(cPent)][NMeD]-Morpholide; lactam N-11) | C (A compound having a KD ratio of 0.1 or more and less than 3 is denoted as C) | B (a compound having 3 or more and less than 10 is denoted as B)
0.22 nM | CCCN1C(=O)CN(C)C(=O)CN(C)C(=O)[C@H]([C@@H](C)CC)NC(=O)[C@H](C2CCC2)N(C)C(=O)C[C@@H](C(=O)N2CCOCC2)N(C)C(=O)[C@H](C2CCCC2)N(C)C(=O)C2(CCCC2)NC(=O)[C@@H]2CC(F)(F)CN2C(=O)[C@H](CCc2ccc(C(F)(F)F)c(Cl)c2)NC(=O)CN(C)C(=O)[C@@H]1Cc1ccc(C(F)(F)F)cc1 [PP0200] ([NMeGly(cBu)]I[Sar][Sar][NPrPhe(4-CF3)][Sar][hPhe(3-Cl-4-CF3)][Pro(4,4-F2)][Ac5c][NMeGly(cPent)][NMeD]-Morpholide; lactam N-11) | C (A compound having a KD ratio of 0.1 or more and less than 3 is denoted as C) | C (A compound having a KD ratio of 0.1 or more and less than 3 is denoted as C)
